Test results taken from patent publication US10118916B2, “Modulators of cystic fibrosis transmembrane conductance regulator protein” (AbbVie S.à.r.l., priority 2016, dated 2018).
pEC50: −log10 of the molar value.

Biological target: T1, F508delCFTR (Homo sapiens, UniProt P13569, DEL508-508)
T1 construct: expressed in transfected cells; host or cells: CFBE41o- (human lung derived epithelial cell line), doxycycline-inducible
Test: Cell Surface Expression-Horse Radish Peroxidase (CSE-HRP) assay
Format: cell-based
Conditions: CFBE41o-F508delCFTR-HRP cells; for pEC50: F508delCFTR cell surface expression, luminescence, 18-24 hours at 33° C., highest concentration 20 μM; for Maximum % activity: maximum at any tested concentration, normalized to on-plate positive control (3 μM)
Procedure, shortened: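 CFBE41o- cells expressing doxycycline-induced (0.5 μg/mL, 72 h at 37 °C) F508delCFTR with HRP in the fourth extracellular loop; compounds 8 points, 3-fold from 20 μM, 18-24 h at 33 °C. Surface HRP measured by luminol luminescence, normalised to DMSO and 3 μM reference corrector; EC50 from variable-slope sigmoidal fit of triplicate plates.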

T1 sequence (P13569 with tags, fused parts or gaps DEL508-508): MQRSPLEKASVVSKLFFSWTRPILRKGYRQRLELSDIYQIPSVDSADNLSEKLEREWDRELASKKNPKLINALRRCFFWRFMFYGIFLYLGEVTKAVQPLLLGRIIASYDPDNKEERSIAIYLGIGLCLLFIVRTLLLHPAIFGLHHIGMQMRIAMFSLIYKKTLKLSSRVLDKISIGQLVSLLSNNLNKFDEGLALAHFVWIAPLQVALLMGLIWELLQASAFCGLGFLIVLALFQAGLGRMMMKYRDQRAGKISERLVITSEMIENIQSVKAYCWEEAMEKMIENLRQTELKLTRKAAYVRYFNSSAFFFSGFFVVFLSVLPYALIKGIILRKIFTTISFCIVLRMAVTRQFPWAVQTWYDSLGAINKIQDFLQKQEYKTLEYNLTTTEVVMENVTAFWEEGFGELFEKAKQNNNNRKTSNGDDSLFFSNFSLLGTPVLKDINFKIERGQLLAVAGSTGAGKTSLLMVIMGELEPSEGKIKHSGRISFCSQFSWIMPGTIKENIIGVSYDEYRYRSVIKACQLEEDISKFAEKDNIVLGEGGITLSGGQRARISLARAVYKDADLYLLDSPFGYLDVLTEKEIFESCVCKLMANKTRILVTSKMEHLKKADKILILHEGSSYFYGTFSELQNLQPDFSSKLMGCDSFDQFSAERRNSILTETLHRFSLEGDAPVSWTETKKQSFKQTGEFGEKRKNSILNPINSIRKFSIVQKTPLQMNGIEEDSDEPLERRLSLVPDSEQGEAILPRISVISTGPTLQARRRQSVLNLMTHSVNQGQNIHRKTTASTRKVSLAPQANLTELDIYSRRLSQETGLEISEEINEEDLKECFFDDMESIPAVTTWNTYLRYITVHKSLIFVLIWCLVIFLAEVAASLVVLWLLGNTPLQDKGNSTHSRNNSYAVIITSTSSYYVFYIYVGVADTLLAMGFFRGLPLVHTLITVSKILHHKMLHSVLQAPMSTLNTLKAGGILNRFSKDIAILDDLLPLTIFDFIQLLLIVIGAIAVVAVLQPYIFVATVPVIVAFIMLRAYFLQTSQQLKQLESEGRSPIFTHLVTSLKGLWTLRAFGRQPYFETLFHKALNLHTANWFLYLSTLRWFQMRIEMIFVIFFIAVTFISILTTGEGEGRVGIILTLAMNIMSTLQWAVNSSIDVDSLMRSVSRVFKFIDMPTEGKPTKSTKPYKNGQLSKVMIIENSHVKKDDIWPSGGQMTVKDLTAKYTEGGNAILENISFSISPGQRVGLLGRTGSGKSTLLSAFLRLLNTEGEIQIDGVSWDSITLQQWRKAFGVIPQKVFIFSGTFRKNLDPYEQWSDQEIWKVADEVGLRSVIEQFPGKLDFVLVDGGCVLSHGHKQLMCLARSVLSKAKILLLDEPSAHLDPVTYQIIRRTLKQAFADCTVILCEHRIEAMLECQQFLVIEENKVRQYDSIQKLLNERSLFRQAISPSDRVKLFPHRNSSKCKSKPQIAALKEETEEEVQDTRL

| Structure (SMILES) | pEC50 | Maximum % activity [%] |
| --- | --- | --- |
| C[C@@]1(C(=O)N[C@@H]2C[C@H](c3cccc(C(=O)O)c3)Oc3ccccc32)CCc2cc(Cl)ccc2O1 [Example 64, 3-[(2R,4R)-4-{[(2S)-6-chloro-2-methyl-3,4-dihydro-2H-1-benzopyran-2-carbonyl]amino}-3,4-dihydro-2H-1-benzopyran-2-yl]benzoic acid] | < 4.70 | 18.0 |
| COc1ccc2c(c1)O[C@@H](c1ccc(C(=O)O)cc1)C[C@H]2NC(=O)[C@@]1(C)CCc2cc(Cl)ccc2O1 [Example 67, 4-[(2R,4R)-4-{[(2R)-6-chloro-2-methyl-3,4-dihydro-2H-1-benzopyran-2-carbonyl]amino}-7-methoxy-3,4-dihydro-2H-1-benzopyran-2-yl]benzoic acid] | < 4.70 | 4.7 |
| COc1ccc2c(c1)O[C@@H](c1ccc(C(=O)O)cc1)C[C@H]2NC(=O)C1(C)CCc2cc(OC(F)(F)F)ccc21 (stereo partly drawn) [Example 68, 4-[(2R,4R)-7-methoxy-4-{[1-methyl-5-(trifluoromethoxy)-2,3-dihydro-1H-indene-1-carbonyl]amino}-3,4-dihydro-2H-1-benzopyran-2-yl]benzoic acid] | 5.88 | 85.0 |
| COc1ccc2c(c1)CC[C@]2(C)C(=O)N[C@@H]1C[C@H](c2ccc(C(=O)O)cc2)Oc2cc(OC)ccc21 [Example 69, 4-[(2R,4R)-7-methoxy-4-{[(1S)-5-methoxy-1-methyl-2,3-dihydro-1H-indene-1-carbonyl]amino}-3,4-dihydro-2H-1-benzopyran-2-yl]benzoic acid] | 7.00 | 66.1 |
| COc1ccc2c(c1)O[C@@H](c1ccc(C(=O)O)cc1)C[C@H]2NC(=O)C(C)(C)c1ccc2c(c1)CCO2 [Example 71, 4-{(2R,4R)-4-[2-(2,3-dihydro-1-benzofuran-5-yl)-2-methylpropanamido]-7-methoxy-3,4-dihydro-2H-1-benzopyran-2-yl}benzoic acid] | 6.92 | 52.0 |
| COc1ccc2c(c1)O[C@@H](c1ccc(C(=O)O)cc1)C[C@H]2NC(=O)C1(c2ccc(Cl)cc2)CCC1 [Example 76, 4-[(2R,4R)-4-{[1-(4-chlorophenyl)cyclobutane-1-carbonyl]amino}-7-methoxy-3,4-dihydro-2H-1-benzopyran-2-yl]benzoic acid] | 5.68 | 52.0 |
| COc1ccc2c(c1)O[C@@H](c1ccc(C(=O)O)cc1)C[C@H]2NC(=O)C(C)(C)Oc1ccc(Cl)c(C)c1 [Example 77, 4-{(2R,4R)-4-[2-(4-chloro-3-methylphenoxy)-2-methylpropanamido]-7-methoxy-3,4-dihydro-2H-1-benzopyran-2-yl}benzoic acid] | < 4.70 | 8.0 |
| COc1ccc2c(c1)O[C@@H](c1ccc(C(=O)O)cc1)C[C@H]2NC(=O)C1(c2ccccc2)CCC(F)(F)C1 (stereo partly drawn) [Example 80, 4-{(2R,4R)-4-[(3,3-difluoro-1-phenylcyclopentane-1-carbonyl)amino]-7-methoxy-3,4-dihydro-2H-1-benzopyran-2-yl}benzoic acid] | < 4.70 | −0.2 |
| COc1ccc2c(c1)O[C@@H](c1ccc(C(=O)O)cc1)C[C@H]2NC(=O)C1(c2ccc(F)c(F)c2)CCC1 [Example 81, 4-[(2R,4R)-4-{[1-(3,4-difluorophenyl)cyclobutane-1-carbonyl]amino}-7-methoxy-3,4-dihydro-2H-1-benzopyran-2-yl]benzoic acid] | 5.73 | 32.0 |
| COc1ccc2c(c1)O[C@@H](c1ccc(C(=O)O)cc1)C[C@H]2NC(=O)C1(c2ccccc2C(F)(F)F)CCC1 [Example 82, 4-[(2R,4R)-7-methoxy-4-({1-[2-(trifluoromethyl)phenyl]cyclobutane-1-carbonyl}amino)-3,4-dihydro-2H-1-benzopyran-2-yl]benzoic acid] | 5.73 | 23.3 |
| COc1ccc2c(c1)O[C@@H](c1ccc(C(=O)O)cc1)C[C@H]2NC(=O)C1(c2cccc(OC(F)(F)F)c2)CCC1 [Example 83, 4-[(2R,4R)-7-methoxy-4-({1-[3-(trifluoromethoxy)phenyl]cyclobutane-1-carbonyl}amino)-3,4-dihydro-2H-1-benzopyran-2-yl]benzoic acid] | 5.50 | 51.0 |
| COc1ccc2c(c1)O[C@@H](c1ccc(C(=O)O)cc1)C[C@H]2NC(=O)C1(c2cccc(C#N)c2)CC1 [Example 87, 4-[(2R,4R)-4-{[1-(3-cyanophenyl)cyclopropane-1-carbonyl]amino}-7-methoxy-3,4-dihydro-2H-1-benzopyran-2-yl]benzoic acid] | 5.74 | 46.0 |

The remaining lines, values ahead:

| pEC50 | Maximum % activity [%] | Structure (SMILES) |
| --- | --- | --- |
| < 4.70 | 5.1 | COC(=O)c1cccc([C@H]2C[C@@H](NC(=O)[C@]3(C)CCc4cc(Cl)ccc4O3)c3ccccc3O2)c1 [Example 63, methyl 3-[(2R,4R)-4-{[(2S)-6-chloro-2-methyl-3,4-dihydro-2H-1-benzopyran-2-carbonyl]amino}-3,4-dihydro-2H-1-benzopyran-2-yl]benzoate] |
| < 4.70 | 4.8 | C[C@]1(C(=O)N[C@@H]2C[C@H](c3cccc(C(=O)O)c3)Oc3ccccc32)CCc2cc(Cl)ccc2O1 [Example 66, 3-[(2R,4R)-4-{[(2R)-6-chloro-2-methyl-3,4-dihydro-2H-1-benzopyran-2-carbonyl]amino}-3,4-dihydro-2H-1-benzopyran-2-yl]benzoic acid] |
| 5.66 | 28.0 | COc1ccc2c(c1)O[C@@H](c1ccc(C(=O)O)cc1)C[C@H]2NC(=O)C1(c2ccc(OC(F)(F)F)cc2)CCC1 [Example 70, 4-[(2R,4R)-7-methoxy-4-({1-[4-(trifluoromethoxy)phenyl]cyclobutane-1-carbonyl}amino)-3,4-dihydro-2H-1-benzopyran-2-yl]benzoic acid] |
| < 4.70 | 1.4 | COc1ccc2c(c1)O[C@@H](c1ccc(C(=O)O)cc1)C[C@H]2NC(=O)C1(c2ccccc2)CC(F)(F)C1 [Example 72, 4-{(2R,4R)-4-[(3,3-difluoro-1-phenylcyclobutane-1-carbonyl)amino]-7-methoxy-3,4-dihydro-2H-1-benzopyran-2-yl}benzoic acid] |
| 5.74 | 29.0 | COc1ccc2c(c1)O[C@@H](c1ccc(C(=O)O)cc1)C[C@H]2NC(=O)C(C)(C)Oc1cccc(Cl)c1 [Example 73, 4-{(2R,4R)-4-[2-(3-chlorophenoxy)-2-methylpropanamido]-7-methoxy-3,4-dihydro-2H-1-benzopyran-2-yl}benzoic acid] |
| 7.15 | 49.8 | COc1ccc(C2(C(=O)N[C@@H]3C[C@H](c4ccc(C(=O)O)cc4)Oc4cc(OC)ccc43)CC2)cc1 [Example 74, 4-[(2R,4R)-7-methoxy-4-{[1-(4-methoxyphenyl)cyclopropane-1-carbonyl]amino}-3,4-dihydro-2H-1-benzopyran-2-yl]benzoic acid] |
| 6.02 | 37.9 | COc1ccc2c(c1)O[C@@H](c1ccc(C(=O)O)cc1)C[C@H]2NC(=O)C1(c2ccccc2)CC1 [Example 75, 4-{(2R,4R)-7-methoxy-4-[(1-phenylcyclopropane-1-carbonyl)amino]-3,4-dihydro-2H-1-benzopyran-2-yl}benzoic acid] |
| 5.61 | 32.0 | COc1ccc2c(c1)O[C@@H](c1ccc(C(=O)O)cc1)C[C@H]2NC(=O)C(C)(C)Oc1cccc(C(F)(F)F)c1 [Example 78, 4-[(2R,4R)-7-methoxy-4-{2-methyl-2-[3-(trifluoromethyl)phenoxy]propanamido}-3,4-dihydro-2H-1-benzopyran-2-yl]benzoic acid] |
| 6.25 | 56.2 | COc1ccc2c(c1)O[C@@H](c1ccc(C(=O)O)cc1)C[C@H]2NC(=O)C1(c2ccc(F)cc2)CC1 [Example 84, 4-[(2R,4R)-4-{[1-(4-fluorophenyl)cyclopropane-1-carbonyl]amino}-7-methoxy-3,4-dihydro-2H-1-benzopyran-2-yl]benzoic acid] |
| 6.14 | 50.4 | COc1ccc2c(c1)O[C@@H](c1ccc(C(=O)O)cc1)C[C@H]2NC(=O)C1(c2cccc(F)c2)CC1 [Example 85, 4-[(2R,4R)-4-{[1-(3-fluorophenyl)cyclopropane-1-carbonyl]amino}-7-methoxy-3,4-dihydro-2H-1-benzopyran-2-yl]benzoic acid] |
| 6.24 | 57.9 | COc1ccc2c(c1)O[C@@H](c1ccc(C(=O)O)cc1)C[C@H]2NC(=O)C1(c2ccc(C)c(OC)c2)CC1 [Example 86, 4-[(2R,4R)-7-methoxy-4-{[1-(3-methoxy-4-methylphenyl)cyclopropane-1-carbonyl]amino}-3,4-dihydro-2H-1-benzopyran-2-yl]benzoic acid] |
| 6.19 | 44.0 | COc1ccc2c(c1)O[C@@H](c1ccc(C(=O)O)cc1)C[C@H]2NC(=O)C1(c2cccc(Br)c2)CC1 [Example 88, 4-[(2R,4R)-4-{[1-(3-bromophenyl)cyclopropane-1-carbonyl]amino}-7-methoxy-3,4-dihydro-2H-1-benzopyran-2-yl]benzoic acid] |
| 6.12 | 42.0 | COc1ccc2c(c1)O[C@@H](c1ccc(C(=O)O)cc1)C[C@H]2NC(=O)C1(c2ccccc2Br)CC1 [Example 89, 4-[(2R,4R)-4-{[1-(2-bromophenyl)cyclopropane-1-carbonyl]amino}-7-methoxy-3,4-dihydro-2H-1-benzopyran-2-yl]benzoic acid] |
